Tests used:
[1] = molecular target: T1, cathepsin B (Sigma, C-6286) (Bos taurus, UniProt P07688); assay: Inhibitory activity against cathepsin B; assay type: biochemical; conditions: Inhibitory activity against cathepsin B (Table-5)
T1 construct: purchased Sigma C-6286
Experimental: Inhibitory activity against cathepsin B (Sigma, C-6286) was determined according to a method described in a literature (Biochemical Journal, Vol. 201, p. 189, 1982).

m-Calpain = molecular target: T2, m-Calpain (Rattus norvegicus, UniProt Q07009); assay: Inhibitory activity against calpain (m-Calpain purified from brains of rats); assay type: biochemical
T2 construct: m-Calpain was purified from brains of rats; from tissue; host or cells: rat brain
T2 sequence (Q07009 20-700 limits assumed): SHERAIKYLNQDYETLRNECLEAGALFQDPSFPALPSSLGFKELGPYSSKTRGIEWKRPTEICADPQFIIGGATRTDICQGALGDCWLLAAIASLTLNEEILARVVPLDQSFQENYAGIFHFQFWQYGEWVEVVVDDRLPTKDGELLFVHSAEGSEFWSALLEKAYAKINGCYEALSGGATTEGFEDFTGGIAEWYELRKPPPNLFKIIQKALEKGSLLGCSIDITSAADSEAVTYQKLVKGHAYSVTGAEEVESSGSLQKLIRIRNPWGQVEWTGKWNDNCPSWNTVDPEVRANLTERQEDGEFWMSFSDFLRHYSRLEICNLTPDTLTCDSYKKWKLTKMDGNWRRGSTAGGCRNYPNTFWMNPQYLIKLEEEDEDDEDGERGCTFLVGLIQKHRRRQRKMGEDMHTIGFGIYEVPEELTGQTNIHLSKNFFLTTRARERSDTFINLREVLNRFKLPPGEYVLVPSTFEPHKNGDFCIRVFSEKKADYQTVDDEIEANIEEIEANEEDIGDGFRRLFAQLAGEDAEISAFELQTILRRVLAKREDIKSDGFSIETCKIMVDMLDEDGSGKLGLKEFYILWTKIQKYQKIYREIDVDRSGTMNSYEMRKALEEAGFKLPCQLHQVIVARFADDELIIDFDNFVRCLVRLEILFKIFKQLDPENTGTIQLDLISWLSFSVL
T2 sequence (Q64537 1-270 partner): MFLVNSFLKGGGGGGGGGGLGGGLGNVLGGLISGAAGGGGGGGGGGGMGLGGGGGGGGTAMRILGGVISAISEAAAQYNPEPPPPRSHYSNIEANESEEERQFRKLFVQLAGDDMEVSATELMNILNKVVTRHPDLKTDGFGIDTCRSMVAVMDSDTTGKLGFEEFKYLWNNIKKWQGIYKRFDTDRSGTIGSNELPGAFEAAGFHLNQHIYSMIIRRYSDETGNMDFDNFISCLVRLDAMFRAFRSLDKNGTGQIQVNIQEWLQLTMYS
Experimental: m-Calpain was purified from brains of rats according to a method described in a literature (Journal of Biological Chemistry, Vol. 259, p. 3210, 1984), and the inhibitory activity was determined in a manner according to a published method (Journal of Biological Chemistry, Vol. 259, p. 12489, 1984).

[2] = Inhibitory activity against calpain (Table-6)
[3] = Inhibitory activity against calpain (continuation of Table-6)

Structure (SMILES) | IC50 [1] | IC50 (m-Calpain; [2]) | IC50 (m-Calpain; [3])
CC(C)C[C@H](NS(=O)(=O)c1ccccc1)C(=O)N[C@H]1CCOC1O (stereo partly drawn) [Example 1, (3S)-3-((S)-4-methyl-2-phenylsulfonylaminovalerylamino)-2-tetrahydrofuranol] | 420 nM | 620 nM | 
CC(C)[C@H](NC(=O)OCc1ccccc1)C(=O)NC1CCOC1O (stereo partly drawn) [Example 5, 3-((S)-2-benzyloxycarbonylamino-3-methylbutyrylamino)-2-tetrahydrofuranol] | 980 nM | 2300 nM | 
CCCC[C@H](NC(=O)OCc1ccccc1)C(=O)N[C@H]1CCOC1O (stereo partly drawn) [Example 6, (3S)-3-((S)-2-benzyloxycarbonylaminohexanoylamino)-2-tetrahydrofuranol] | 1350 nM | 2300 nM | 
CC(C)C[C@H](NC(=O)OC(C)(C)C)C(=O)N[C@H]1CCOC1O (stereo partly drawn) [Example 10, (3S)-3-((S)-2-tert-butoxycarbonylamino-4-methylvalerylamino)-2-tetrahydrofuranol] | 370 nM | 960 nM | 
CC(C)COC(=O)N[C@@H](CC(C)C)C(=O)N[C@H]1CCOC1O (stereo partly drawn) [Example 11, (3S)-3-((S)-2-isobutoxycarbonylamino-4-methylvalerylamino)-2-tetrahydrofuranol] | 2150 nM | 1100 nM | 
CC(C)C[C@H](NC(=O)OCC1CCCCC1)C(=O)N[C@H]1CCOC1O (stereo partly drawn) [Example 12, (3S)-3-((S)-2-cyclohexylmethoxycarbonylamino-4-methylvalerylamino)-2-tetrahydrofuranol] | 1200 nM | 650 nM | 
CC(C)C[C@H](NC(=O)OCC1c2ccccc2-c2ccccc21)C(=O)N[C@H]1CCOC1O (stereo partly drawn) [Example 22, (3S)-3-{(S)-2-(9-fluorenylmethoxycarbonylamino)-4-methylvalerylamino}-2-tetrahydrofuranol] |  | 410 nM | 
CC(C)C[C@H](NC(=O)c1ccccc1F)C(=O)N[C@H]1CCOC1O (stereo partly drawn) [Example 40, (3S)-3-{(S)-2-(2-fluorobenzoylamino)-4-metylvalerylamino}-2-tetrahydrofuranol] | 1000 nM |  | 
Cc1ccc(C(=O)N[C@@H](CC(C)C)C(=O)N[C@H]2CCOC2O)cc1 (stereo partly drawn) [Example 46, (3S)-3-{(S)-4-methyl-2-(4-methylbenzoylamino)valerylamino}-2-tetrahydorofuranol] | 270 nM |  | 
COc1ccccc1C(=O)N[C@@H](CC(C)C)C(=O)N[C@H]1CCOC1O (stereo partly drawn) [Example 52, (3S)-3-{(S)-2-(2-methoxybenzoylamino)-4-methylvalerylamino)-2-tetrahydrofuranol] |  | 340 nM | 
COc1ccc(C(=O)N[C@@H](CC(C)C)C(=O)N[C@H]2CCOC2O)c(OC)c1 (stereo partly drawn) [Example 54, (3S)-3-{(S)-2-(2,4-dimethoxybenzoylamino)-4-methylvalerylamino}-2-tetrahydrofuranol] |  | 700 nM | 
CC(C)C[C@H](NS(=O)(=O)c1ccc(F)cc1)C(=O)N[C@H]1CCOC1O (stereo partly drawn) [Example 66, (3S)-3-{(S)-2-(4-fluorophenylsulfonylamino)-4-methylvalerylamino}-2-tetrahydrofuranol] |  |  | 600 nM
CC(C)C[C@H](NS(=O)(=O)c1ccc(Cl)cc1)C(=O)N[C@H]1CCOC1O (stereo partly drawn) [Example 68, (3S)-3-{(S)-2-(4-chlorophenylsulfonylamino)-4-methylvalerylamino}-2-tetrahydrofuranol] |  |  | 560 nM
CC(C)C[C@H](NS(=O)(=O)c1ccc(Br)cc1)C(=O)N[C@H]1CCOC1O (stereo partly drawn) [Example 69, (3S)-3-{(S)-2-(4-bromophenylsulfonylamino)-4-methylvalerylamino}-2-tetrahydrofuranol] |  |  | 620 nM
Cc1ccc(S(=O)(=O)N[C@@H](CC(C)C)C(=O)N[C@H]2CCOC2O)cc1 (stereo partly drawn) [Example 70, (3S)-3-{(S)-4-methyl-2-(4-methylphenylsulfonylamino)valerylamino}-2-tetrahydrofuranol] |  |  | 500 nM
COc1ccc(S(=O)(=O)N[C@@H](CC(C)C)C(=O)N[C@H]2CCOC2O)cc1 (stereo partly drawn) [Example 73, (3S)-3-{(S)-2-(4-methoxyphenylsulfonylamino)-4-methylvalerylamino}-2-tetrahydrofuranol] |  |  | 740 nM
O=C(N[C@@H](Cc1ccccc1)C(=O)N[C@H]1CCOC1O)OCc1ccccc1 (stereo partly drawn) [Example 78, (3S)-3-((S)-2-benzyloxycarbonylamino-3-phenylpropionylamino)-2-tetrahydrofuranol] | 300 nM |  | 
CC(C)C[C@H](NS(=O)(=O)c1ccccc1)C(=O)N[C@H]1C(C)COC1O (stereo partly drawn) [Example 80, (3S)-4-methyl-3-((S)-4-methyl-2-phenylsulfonylaminovalerylamino)-2-tetrahydrofuranol] |  |  | 2800 nM
CC(C)C[C@H](NC(=O)OCc1ccccc1)C(=O)N[C@H]1CCCOC1O (some centres unmarked) [Example 81] |  |  | 1550 nM

The remaining lines, values ahead:

IC50 [1] | IC50 (m-Calpain; [2]) | IC50 (m-Calpain; [3]) | Structure (SMILES)
700 nM | 900 nM |  | CCC[C@H](NC(=O)OCc1ccccc1)C(=O)N[C@H]1CCOC1O (stereo partly drawn) [Example 4, (3S)-3-((S)-2-benzyloxycarbonylaminovalerylamino)-2-tetrahydrofuranol]
900 nM | 2400 nM |  | CCC(C)[C@H](NC(=O)OCc1ccccc1)C(=O)N[C@H]1CCOC1O (stereo partly drawn) [Example 7, (3S)-3-((2S)-2-benzyloxycarbonylamino-3-methylvalerylamino)-2-tetrahydrofuranol]
 | 1550 nM |  | COC(=O)N[C@@H](CC(C)C)C(=O)NC1CCOC1O (stereo partly drawn) [Example 9, 3-((S)-2-methoxycarbonylamino-4-methylvalerylamino)-2-tetrahydrofuranol]
 | 1100 nM |  | CC(C)C[C@H](NC(=O)OCC1CCCO1)C(=O)N[C@H]1CCOC1O (stereo partly drawn) [Example 23, (3S)-3-((S)-4-methyl-2-tetrahydrofurfuryloxycarbonylaminovalerylamino)-2-tetrahydrofuranol]
 | 1400 nM |  | CC(C)C[C@H](NC(=O)OCc1cccc[n+]1[O-])C(=O)NC1CCOC1O (stereo partly drawn) [Example 26, 3-{(S)-4-methyl-2-(2-pyridylmethoxycarbonylamino)valerylamino)-2-tetrahydrofuranol N-oxide]
 | 2300 nM |  | Cc1cccc(C)c1C(=O)N[C@@H](CC(C)C)C(=O)N[C@H]1CCOC1O (stereo partly drawn) [Example 47, (3S)-3-{(S)-2-(2,6-dimethylbenzoylamino)-4-methylvalerylamino)-2-tetrahydrofuranol]
 | 680 nM |  | Cc1cc(C)c(C(=O)N[C@@H](CC(C)C)C(=O)N[C@H]2CCOC2O)c(C)c1 (stereo partly drawn) [Example 49, (3S)-3-{(S)-4-methyl-2-(2,4,6-trimethylbenzoylamino)valerylamino}-2-tetrahydrofuranol]
 |  | 350 nM | CC(C)C[C@H](NC(=O)C1CCc2ccccc2O1)C(=O)N[C@H]1CCOC1O (some centres unmarked) [Example 63]
 |  | 450 nM | Cc1cc(C)c(S(=O)(=O)N[C@@H](CC(C)C)C(=O)N[C@H]2CCOC2O)c(C)c1 (stereo partly drawn) [Example 71, (3S)-3-{(S)-4-methyl-2-(2,4,6-trimethylphenylsulfonylamino)valerylamino}-2-tetrahydrofuranol]
 |  | 390 nM | CC(C)C[C@H](NS(=O)(=O)c1ccc(C(C)(C)C)cc1)C(=O)N[C@H]1CCOC1O (stereo partly drawn) [Example 72, (3S)-3-{(S)-2-(4-tert-butylphenylsulfonylamino)-4-methylvalerylamino}-2-tetrahydrofuranol]
 |  | 950 nM | CC(C)C[C@H](NS(=O)(=O)c1cccc([N+](=O)[O-])c1)C(=O)N[C@H]1CCOC1O (stereo partly drawn) [Example 74, (3S)-3-{(S)-4-methyl-2-(3-nitrophenylsulfonylamino)valerylamino}-2-tetrahydrofuranol]
